According to PubChem BioAssay (NCI):
Where “and” joins values, the source holds several entries; their conditions need not be identical. Identical values can stand only once.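 Growth conditions: 96-well plates. Treatment: test compound, 48 hours, 5 concentrations. Analysis: linear interpolation between bracketing concentrations; unreached endpoints set to highest concentration. TGI is the concentration that stops growth completely.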

Experiments:
Test in all cases: NCI tumour cell line growth inhibition, 48 h
ACHN renal = tested on: ACHN renal
BT-549 breast = tested on: BT-549 breast
DU-145 prostate = tested on: DU-145 prostate
HCT-116 colon = tested on: HCT-116 colon
K-562 leukemia = tested on: K-562 leukemia
MDA-MB-435 = tested on: MDA-MB-435
MDA-N = tested on: MDA-N
NCI-H460 lung = tested on: NCI-H460 lung
NCI-H522 lung = tested on: NCI-H522 lung
NCI/ADR-RES ovarian = tested on: NCI/ADR-RES ovarian
OVCAR-8 ovarian = tested on: OVCAR-8 ovarian
PC-3 prostate = tested on: PC-3 prostate
RPMI-8226 leukemia = tested on: RPMI-8226 leukemia
RXF 393 renal = tested on: RXF 393 renal
SK-MEL-2 melanoma = tested on: SK-MEL-2 melanoma
SK-MEL-28 melanoma = tested on: SK-MEL-28 melanoma
SK-MEL-5 melanoma = tested on: SK-MEL-5 melanoma
SK-OV-3 ovarian = tested on: SK-OV-3 ovarian
SNB-19 CNS = tested on: SNB-19 CNS
UACC-257 melanoma = tested on: UACC-257 melanoma

N#[N+]c1c([O-])c2ccccc2c2ccccc12
TGI (ACHN renal): > 100 µM
TGI (BT-549 breast): > 100 µM
TGI (DU-145 prostate): > 100 µM
TGI (HCT-116 colon): > 100 µM
TGI (K-562 leukemia): > 100 µM
TGI (MDA-MB-435): > 100 µM
TGI (MDA-N): > 100 µM
TGI (NCI-H460 lung): > 100 µM
TGI (NCI-H522 lung): 85 µM
TGI (NCI/ADR-RES ovarian): > 100 µM
TGI (OVCAR-8 ovarian): > 100 µM
TGI (PC-3 prostate): > 100 µM
TGI (RPMI-8226 leukemia): > 100 µM
TGI (RXF 393 renal): 45 µM
TGI (SK-MEL-2 melanoma): 93.4 µM
TGI (SK-MEL-28 melanoma): > 100 µM
TGI (SK-MEL-5 melanoma): 35.4 µM
TGI (SK-OV-3 ovarian): > 100 µM
TGI (SNB-19 CNS): > 100 µM
TGI (UACC-257 melanoma): > 100 µM

NC(=O)CSc1c2cc(O)ccc2nc2ccc(O)cc12
TGI (ACHN renal): > 10 µM
TGI (BT-549 breast): > 10 µM
TGI (DU-145 prostate): > 10 µM
TGI (HCT-116 colon): > 10 µM
TGI (K-562 leukemia): > 10 µM
TGI (MDA-MB-435): > 10 µM
TGI (MDA-N): > 10 µM
TGI (NCI-H460 lung): > 10 µM
TGI (NCI-H522 lung): > 10 µM
TGI (NCI/ADR-RES ovarian): > 10 µM
TGI (OVCAR-8 ovarian): > 10 µM
TGI (PC-3 prostate): > 10 µM
TGI (RPMI-8226 leukemia): > 10 µM
TGI (RXF 393 renal): > 10 µM
TGI (SK-MEL-2 melanoma): > 10 µM
TGI (SK-MEL-28 melanoma): > 10 µM
TGI (SK-MEL-5 melanoma): > 10 µM
TGI (SK-OV-3 ovarian): > 10 µM
TGI (SNB-19 CNS): > 10 µM
TGI (UACC-257 melanoma): > 10 µM

CC12CCCCC1=C(F)C(F)(F)S2 (stereo not given)
TGI (ACHN renal): 51.6 µM
TGI (BT-549 breast): 43 µM
TGI (DU-145 prostate): > 100 µM
TGI (HCT-116 colon): 58.5 µM
TGI (K-562 leukemia): 59.2 µM
TGI (MDA-MB-435): > 86.6 µM
TGI (MDA-N): > 46.4 µM
TGI (NCI-H460 lung): > 100 µM
TGI (NCI-H522 lung): 45.3 µM
TGI (NCI/ADR-RES ovarian): > 100 µM
TGI (OVCAR-8 ovarian): 77.3 µM
TGI (PC-3 prostate): > 87.2 µM
TGI (RPMI-8226 leukemia): 37.7 µM
TGI (RXF 393 renal): > 51.8 µM
TGI (SK-MEL-2 melanoma): > 100 µM
TGI (SK-MEL-28 melanoma): 78.2 µM
TGI (SK-MEL-5 melanoma): > 91.1 µM
TGI (SK-OV-3 ovarian): > 100 µM
TGI (SNB-19 CNS): > 100 µM
TGI (UACC-257 melanoma): 51.6 µM

COc1cc(/C=C2\C[C@H]3[C@@H]4CCC5=CC(=O)CC[C@]5(C)[C@H]4CC[C@]3(C)C2=O)cc(OC)c1OC
TGI (ACHN renal): > 100 µM
TGI (BT-549 breast): > 95.4 µM
TGI (DU-145 prostate): > 100 µM
TGI (HCT-116 colon): > 40.8 µM
TGI (K-562 leukemia): > 100 µM
TGI (MDA-MB-435): > 39.4 µM
TGI (MDA-N): > 63.6 µM
TGI (NCI-H460 lung): > 100 µM
TGI (NCI-H522 lung): > 100 µM
TGI (NCI/ADR-RES ovarian): > 100 µM
TGI (OVCAR-8 ovarian): > 100 µM
TGI (PC-3 prostate): > 43.2 µM
TGI (RPMI-8226 leukemia): 9.7 µM
TGI (RXF 393 renal): > 100 µM
TGI (SK-MEL-2 melanoma): > 59.8 µM
TGI (SK-MEL-28 melanoma): > 100 µM
TGI (SK-MEL-5 melanoma): 15.9 µM
TGI (SK-OV-3 ovarian): > 100 µM
TGI (SNB-19 CNS): > 100 µM
TGI (UACC-257 melanoma): > 84.2 µM

Clc1ccc2c(NCCCCN3OC3c3ccccc3)ccnc2c1 (stereo not given)
TGI (ACHN renal): 22.2 µM
TGI (BT-549 breast): 27 µM
TGI (DU-145 prostate): 24.9 µM
TGI (HCT-116 colon): 4.36 µM
TGI (K-562 leukemia): 4.92 µM
TGI (MDA-MB-435): 14.5 µM
TGI (MDA-N): 16.7 µM
TGI (NCI-H460 lung): 21.9 µM
TGI (NCI-H522 lung): 16.4 µM
TGI (NCI/ADR-RES ovarian): 40.2 µM
TGI (OVCAR-8 ovarian): 13.1 µM
TGI (PC-3 prostate): 26.7 µM
TGI (RPMI-8226 leukemia): 5.98 µM
TGI (RXF 393 renal): 12 µM
TGI (SK-MEL-2 melanoma): 11.1 µM
TGI (SK-MEL-28 melanoma): 7.42 µM
TGI (SK-MEL-5 melanoma): 11.4 µM
TGI (SK-OV-3 ovarian): 34.5 µM
TGI (SNB-19 CNS): 18.9 µM
TGI (UACC-257 melanoma): 34.5 µM

COC(=O)c1c(CC(Cc2ccc3c(c2)CCCC3)C(=O)O)ccc2c1CCCC2 (stereo not given)
TGI (ACHN renal): > 100 µM
TGI (BT-549 breast): > 100 µM
TGI (DU-145 prostate): > 100 µM
TGI (HCT-116 colon): 33.1 µM
TGI (K-562 leukemia): > 100 µM
TGI (MDA-MB-435): > 100 µM
TGI (MDA-N): > 100 µM
TGI (NCI-H460 lung): 47.9 µM
TGI (NCI-H522 lung): 34.1 µM
TGI (NCI/ADR-RES ovarian): 34.4 µM
TGI (OVCAR-8 ovarian): > 100 µM
TGI (PC-3 prostate): > 100 µM
TGI (RPMI-8226 leukemia): 73.3 µM
TGI (RXF 393 renal): > 100 µM
TGI (SK-MEL-2 melanoma): 39.5 µM
TGI (SK-MEL-28 melanoma): > 100 µM
TGI (SK-MEL-5 melanoma): > 100 µM
TGI (SK-OV-3 ovarian): > 100 µM
TGI (SNB-19 CNS): > 100 µM
TGI (UACC-257 melanoma): 33.3 µM

Clc1ccc(-c2cc(-c3cc4cc(Br)ccc4nc3Cl)on2)cc1
TGI (ACHN renal): > 50 µM
TGI (BT-549 breast): > 50 µM
TGI (DU-145 prostate): > 50 µM
TGI (HCT-116 colon): 30.7 µM
TGI (K-562 leukemia): > 50 µM
TGI (MDA-MB-435): 32.1 µM
TGI (MDA-N): 30.6 µM
TGI (NCI-H460 lung): 22.6 µM
TGI (NCI-H522 lung): 21.8 µM
TGI (NCI/ADR-RES ovarian): 37.9 µM
TGI (OVCAR-8 ovarian): > 50 µM
TGI (PC-3 prostate): > 50 µM
TGI (RPMI-8226 leukemia): 41.7 µM
TGI (RXF 393 renal): 43.9 µM
TGI (SK-MEL-2 melanoma): 21.9 µM
TGI (SK-MEL-28 melanoma): 29.3 µM
TGI (SK-MEL-5 melanoma): 19.6 µM
TGI (SK-OV-3 ovarian): > 50 µM
TGI (SNB-19 CNS): > 50 µM
TGI (UACC-257 melanoma): 46 µM

O=c1[nH]c(SCc2cccc([N+](=O)[O-])c2)nc2nc[nH]c12
TGI (ACHN renal): > 100 µM
TGI (BT-549 breast): > 100 µM
TGI (DU-145 prostate): > 100 µM
TGI (HCT-116 colon): > 100 µM
TGI (K-562 leukemia): > 100 µM
TGI (MDA-MB-435): > 100 µM
TGI (MDA-N): > 100 µM
TGI (NCI-H460 lung): > 100 µM
TGI (NCI-H522 lung): > 100 µM
TGI (NCI/ADR-RES ovarian): > 100 µM
TGI (OVCAR-8 ovarian): > 100 µM
TGI (PC-3 prostate): > 100 µM
TGI (RPMI-8226 leukemia): > 100 µM
TGI (RXF 393 renal): > 100 µM
TGI (SK-MEL-2 melanoma): > 100 µM
TGI (SK-MEL-28 melanoma): > 100 µM
TGI (SK-MEL-5 melanoma): > 100 µM
TGI (SK-OV-3 ovarian): > 100 µM
TGI (SNB-19 CNS): > 100 µM
TGI (UACC-257 melanoma): > 100 µM

N#Cc1c(Cl)c2cccnc2n2c1nc1ccccc12
TGI (ACHN renal): 3.2 µM
TGI (BT-549 breast): 9.28 µM
TGI (DU-145 prostate): 4.03 µM
TGI (HCT-116 colon): 3.19 µM
TGI (K-562 leukemia): 6.05 µM
TGI (MDA-MB-435): 13.5 µM
TGI (MDA-N): 15.7 µM
TGI (NCI-H460 lung): 19.6 µM
TGI (NCI-H522 lung): 2.68 µM
TGI (NCI/ADR-RES ovarian): 6.55 µM
TGI (OVCAR-8 ovarian): 3.77 µM
TGI (PC-3 prostate): 6.23 µM
TGI (RPMI-8226 leukemia): 5.67 µM
TGI (RXF 393 renal): 3.44 µM
TGI (SK-MEL-2 melanoma): 23.3 µM
TGI (SK-MEL-28 melanoma): 9.75 µM
TGI (SK-MEL-5 melanoma): 2.6 µM
TGI (SK-OV-3 ovarian): 30 µM
TGI (SNB-19 CNS): 38.5 µM
TGI (UACC-257 melanoma): 7.5 µM

CC(Oc1ccc(Oc2cnc3ccc(Cl)cc3n2)cc1)C(=O)O (stereo not given)
TGI (ACHN renal): > 100 µM
TGI (BT-549 breast): > 100 µM
TGI (DU-145 prostate): > 100 µM
TGI (HCT-116 colon): > 100 µM
TGI (K-562 leukemia): > 100 µM
TGI (MDA-MB-435): > 100 µM
TGI (MDA-N): > 100 µM
TGI (NCI-H460 lung): > 100 µM
TGI (NCI-H522 lung): 99.4 µM and > 100 µM
TGI (NCI/ADR-RES ovarian): > 100 µM
TGI (OVCAR-8 ovarian): > 100 µM
TGI (PC-3 prostate): > 100 µM
TGI (RPMI-8226 leukemia): > 100 µM
TGI (RXF 393 renal): > 100 µM
TGI (SK-MEL-2 melanoma): > 100 µM
TGI (SK-MEL-28 melanoma): > 100 µM
TGI (SK-MEL-5 melanoma): > 100 µM
TGI (SK-OV-3 ovarian): > 100 µM
TGI (SNB-19 CNS): > 100 µM
TGI (UACC-257 melanoma): > 100 µM

CC(O)c1cc2c(s1)C(=O)c1c(C(C)O)csc1C2=O (stereo not given)
TGI (ACHN renal): 1.38 µM
TGI (BT-549 breast): 0.378 µM
TGI (DU-145 prostate): 0.242 µM
TGI (HCT-116 colon): 1.07 µM
TGI (K-562 leukemia): 0.616 µM
TGI (MDA-MB-435): 0.183 µM
TGI (MDA-N): 0.0483 µM
TGI (NCI-H460 lung): 0.148 µM
TGI (NCI-H522 lung): 1.13 µM
TGI (NCI/ADR-RES ovarian): 0.593 µM
TGI (OVCAR-8 ovarian): 0.717 µM
TGI (PC-3 prostate): 0.514 µM
TGI (RPMI-8226 leukemia): 0.801 µM
TGI (RXF 393 renal): 0.656 µM
TGI (SK-MEL-2 melanoma): 0.292 µM
TGI (SK-MEL-28 melanoma): 0.466 µM
TGI (SK-MEL-5 melanoma): 0.0716 µM
TGI (SK-OV-3 ovarian): 1.76 µM
TGI (SNB-19 CNS): 1.08 µM
TGI (UACC-257 melanoma): 0.216 µM
